Measured values from US8916526B2, “Flavanone derivative” (National University Corporation Okayama University, priority 2009, dated 2014).
Values after ≈ are worked out from the molar mass of the structure shown.

What was measured:
MRSA N315 = experiment: In vitro infectivity assay (MIC), broth dilution, Exp. Ex. 1-1; type: cell-based, Staphylococcus aureus; conditions: for MIC MRSA N315: Mueller-Hinton broth, 35° C., 24 hours
Outline: (§1)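 CLSI broth dilution, inoculum about 10^5 CUF/[…] in Mueller-Hinton broth with 0.85% NaCl, 24 h at 35° C.; MIC measured three times. Strains included clinical MRSA isolates, MRSA N315, VISA Mu50, MSSA FDA 209P and VRE NCTC 12201 and FN-1.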

MRSA OM481 = experiment: as above; type: cell-based, Staphylococcus aureus; conditions: for MIC MRSA OM481: Mueller-Hinton broth, 35° C., 24 hours
Outline: as §1

MRSA OM58 = experiment: as above; type: cell-based, Staphylococcus aureus; conditions: for MIC MRSA OM58: Mueller-Hinton broth, 35° C., 24 hours
Outline: as §1

MSSA FDA 209P = experiment: as above; type: cell-based, Staphylococcus aureus; conditions: for MIC MSS 209P: MSSA FDA 209P, Mueller-Hinton broth, 35° C., 24 hours
Outline: as §1

VISA Mu50 = experiment: as above; type: cell-based, Staphylococcus aureus; conditions: for MIC VISA Mu50: Mueller-Hinton broth, 35° C., 24 hours
Outline: as §1

VRE FN-1 = experiment: as above; type: cell-based, enterococci; conditions: for MIC VRE FN-1: Mueller-Hinton broth, 35° C., 24 hours
Outline: as §1

VRE NCTC12201 = experiment: as above; type: cell-based, enterococci; conditions: for MIC VRE NCTC 12201: VRE NCTC12201, Mueller-Hinton broth, 35° C., 24 hours
Outline: as §1

[1] = tested on: Vancomycin intermediate-resistant Staphylococcus aureus Mu50; experiment: In vitro infectivity assay (MIC), Exp. Ex. 2-1; type: cell-based; conditions: Staphylococcus aureus, VISA, 24 h, read-out: MIC VISA Mu50
Outline: (§2)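 Inoculate bacteria (about 10^5 CUF/[…]) into NaCl-supplemented (0.85%) Mueller-Hinton broth with compound dilutions, incubate 24 hours at 35° C, then record the minimum inhibitory concentration. Repeated three times.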

[2] = tested on: Vancomycin-resistant enterococci FN-1; experiment: In vitro infectivity assay (MIC), Exp. Ex. 2-1; type: cell-based; conditions: Enterococcus, VRE, 24 h, read-out: MIC VRE FN-1
Outline: as §2

[3] = tested on: Vancomycin-resistant enterococci NCTC 12201; experiment: In vitro infectivity assay (MIC), Exp. Ex. 2-1; type: cell-based; conditions: Enterococcus, NCTC 12201 / VRE, 24 h, read-out: MIC VRE NCTC 12201
Outline: as §2

[4] = tested on: Methicillin sensitive S. aureus 209P; experiment: In vitro infectivity assay (MIC), Exp. Ex. 2-1; type: cell-based, Staphylococcus aureus; conditions: Staphylococcus aureus, 209P / MSSA, 24 h, read-out: MIC MSSA 209P
Outline: as §2

[5] = tested on: Methicillin-resistant S. aureus N315; experiment: In vitro infectivity assay (MIC), Exp. Ex. 2-1; type: cell-based, Staphylococcus aureus; conditions: Staphylococcus aureus, MRSA, 24 h, read-out: MIC MRSA N315
Outline: as §2

[6] = tested on: Methicillin-resistant S. aureus OM481; experiment: In vitro infectivity assay (MIC), Exp. Ex. 2-1; type: cell-based, Staphylococcus aureus; conditions: Staphylococcus aureus, MRSA, 24 h, read-out: MIC MRSA OM481
Outline: as §2

[7] = tested on: Methicillin-resistant S. aureus OM584; experiment: In vitro infectivity assay (MIC), Exp. Ex. 2-1; type: cell-based, Staphylococcus aureus; conditions: Staphylococcus aureus, MRSA, 24 h, read-out: MIC MRSA OM584
Outline: as §2

[8] = tested on: Streptococcus pneumoniae R6; experiment: In vitro infectivity assay (MIC), Exp. Ex. 2-1; type: cell-based; conditions: Streptococcus pneumoniae, R6, 24 h, read-out: MIC S. Pneumoniae R6
[9] = tested on: Methicillin-resistant S. aureus COL; experiment: In vitro infectivity assay (MIC), Exp. Ex. 2-1; type: cell-based; conditions: Staphylococcus aureus, MRSA, 24 h, read-out: MIC MRSA COL
[10] = target: T1, DNA gyrase of Escherichia coli (Escherichia coli, UniProt P0AES4+P0AES6); experiment: DNA gyrase inhibition (supercoiling assay kit), Exp. Ex. 1-2; type: biochemical; conditions: for Gyrase inhibitory activity IC50: E. coli DNA gyrase supercoiling, relaxed pBR322, 37° C., 30 minutes
T1 construct: purchased John Innes Enterprises #K0001
Outline: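 Relaxed pBR322 DNA […] supercoiled by 1 U E. coli gyrase for 30 min at 37 °C in 35 mM Tris-HCl pH 7.5, 24 mM KCl, 4 mM MgCl2, 2 mM DTT, 1.8 mM spermidine, 1 mM ATP, 6.5% glycerol, 0.1 mg/ml BSA. Products resolved by gel electrophoresis; IC50 determined.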

[11] = tested on: various strains such as MRSA, VISA, MSSA and VRE; experiment: In vitro infectivity assay (MIC), Exp. Ex. 1-1, strains taken together; type: cell-based, Staphylococcus aureus, enterococci; conditions: summary of Table 1
Procedure: The antibacterial activities were measured based on broth dilution techniques of international standards (Clinical Laboratory Standards Institute: CLSI). The activities were shown by minimum inhibitory concentrations (MICs) determined by inoculating the above-mentioned strains at a concentration of about 10^5 […] into Mueller-Hinton broth (manufactured by Difco) containing 0.85% NaCl in 96-well microplates and incubating the plates at 35° C. for 24 hours. Measurement was carried out three times.
The antibacterial activities of the compounds of the present invention against various strains such as methicillin-resistant Staphylococcus aureus (MRSA), vancomycin intermediate-resistant Staphylococcus aureus (VISA), methicillin-sensitive Staphylococcus aureus (MSSA), and vancomycin-resistant enterococci (VRE) were examined. Of the bacteria used in MIC measurement in this test example, clinical bacteria of MRSA (OM481 strain and OM584 strain) were supplied from Okayama University Hospital (Japan). An MRSA strain N315, a vancomycin intermediate-resistant Staphylococcus aureus (VISA) strain Mu50, and a methicillin-sensitive Staphylococcus aureus (MSSA) strain FDA 209P were used as controls. Vancomycin-resistant enterococcus (VRE) strains NCTC 12201 and FN-1 were supplied from the National Institute of Infectious Disease (Japan).

[12] = mouse, in vivo, 10 mg/kg
Procedure: (§3) An acute toxicity test of the compound of the present invention was carried out using ICR mice as experimental animals.

[13] = Acute toxicity evaluation experiment; conditions: ICR mice, observed over 7 days, four mice
Procedure: as §3

T1 sequence (P0AES4 whole entry, one chain of several): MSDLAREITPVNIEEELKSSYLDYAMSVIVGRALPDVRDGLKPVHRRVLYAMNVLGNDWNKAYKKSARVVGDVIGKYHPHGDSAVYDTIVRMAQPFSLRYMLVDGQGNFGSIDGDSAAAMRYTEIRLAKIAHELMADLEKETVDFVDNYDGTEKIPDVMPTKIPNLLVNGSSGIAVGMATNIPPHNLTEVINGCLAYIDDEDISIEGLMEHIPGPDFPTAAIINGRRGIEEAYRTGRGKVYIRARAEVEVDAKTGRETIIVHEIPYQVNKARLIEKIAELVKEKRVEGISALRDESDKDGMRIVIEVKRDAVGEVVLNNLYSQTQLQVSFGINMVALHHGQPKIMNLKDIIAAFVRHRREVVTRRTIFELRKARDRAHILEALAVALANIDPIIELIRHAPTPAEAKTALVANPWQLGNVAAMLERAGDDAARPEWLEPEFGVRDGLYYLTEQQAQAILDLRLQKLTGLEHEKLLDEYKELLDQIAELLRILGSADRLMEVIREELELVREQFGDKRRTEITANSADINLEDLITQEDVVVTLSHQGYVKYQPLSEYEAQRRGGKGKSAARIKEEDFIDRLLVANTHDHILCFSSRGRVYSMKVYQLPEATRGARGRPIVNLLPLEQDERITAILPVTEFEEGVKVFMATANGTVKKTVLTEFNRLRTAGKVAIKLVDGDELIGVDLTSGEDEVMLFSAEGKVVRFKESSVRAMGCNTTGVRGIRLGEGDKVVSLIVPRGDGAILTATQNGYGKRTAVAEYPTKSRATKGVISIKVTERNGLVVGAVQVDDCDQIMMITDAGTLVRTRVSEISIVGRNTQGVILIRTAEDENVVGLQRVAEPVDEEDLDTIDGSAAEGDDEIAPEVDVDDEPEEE

| Compound | MIC MRSA N315 (MRSA N315) | MIC MRSA OM481 (MRSA OM481) | MIC MRSA OM58 (MRSA OM58) | MIC MSS 209P (MSSA FDA 209P) | MIC VISA Mu50 (VISA Mu50) | MIC VRE FN-1 (VRE FN-1) | MIC VRE NCTC 12201 (VRE NCTC12201) | Gyrase inhibitory activity IC50 [10] | Antibacterial activities against the vancomycin resistant bacteria such as VRE and VISA (in words) [11] | other results |
| --- | --- | --- | --- | --- | --- | --- | --- | --- | --- | --- |
| CN[C@H](CC(C)C)C(=O)N[C@H]1C(=O)N[C@@H](CC(N)=O)C(=O)N[C@H]2C(=O)N[C@H]3C(=O)N[C@H](C(=O)N[C@H](C(=O)O)c4cc(O)cc(O)c4-c4cc3ccc4O)[C@H](O)c3ccc(c(Cl)c3)Oc3cc2cc(c3O[C@@H]2O[C@H](CO)[C@@H](O)[C@H](O)[C@H]2O[C@H]2C[C@](C)(N)[C@H](O)[C@H](C)O2)Oc2ccc(cc2Cl)[C@H]1O [Vancomycin, vancomycin, reference compound] |  |  |  |  |  |  |  |  |  | MIC (MRSA N315; Staphylococcus aureus, MRSA, 24 h, read-out: MIC MRSA N315): 0.25 µg/mL (≈ 0.173 µM); MIC (MRSA OM481; Staphylococcus aureus, MRSA, 24 h, read-out: MIC MRSA OM481): 0.25 µg/mL (≈ 0.173 µM); MIC (MRSA OM58; Staphylococcus aureus, MRSA, 24 h, read-out: MIC MRSA OM58): 0.25 µg/mL (≈ 0.173 µM); MIC (MSSA FDA 209P; Staphylococcus aureus, 24 h, read-out: MIC MSS 209P): 0.25 µg/mL (≈ 0.173 µM); MIC (VISA Mu50; Staphylococcus aureus, VISA, 24 h, read-out: MIC VISA Mu50): 8 µg/mL (≈ 5.52 µM); MIC (VRE FN-1; Enterococcus, VRE, 24 h, read-out: MIC VRE FN-1): > 128 µg/mL; MIC (VRE NCTC12201; Enterococcus, 24 h, read-out: MIC VRE NCTC12201): > 128 µg/mL; MIC [1]: 8 µg/mL (≈ 5.52 µM); MIC [2]: > 128 µg/mL; MIC [3]: > 128 µg/mL; MIC [4]: 0.25 µg/mL (≈ 0.173 µM); MIC [5]: 0.25 µg/mL (≈ 0.173 µM); MIC [6]: 0.25 µg/mL (≈ 0.173 µM); MIC [7]: 0.25 µg/mL (≈ 0.173 µM); MIC [8]: 0.25 µg/mL (≈ 0.173 µM); MIC [9]: 0.25 µg/mL (≈ 0.173 µM) |
| Cc1ccc(CCC(=O)O[C@H]2[C@H](Oc3c(-c4ccc(O)c(O)c4)oc4cc(O)cc(O)c4c3=O)O[C@H](CO)[C@@H](O)[C@@H]2OC(=O)CCc2ccc(C)cc2)cc1 [Compound 15c, 2-(3′,4′-Dihydroxy)-5,7-dihydroxy-3-β-D-(2″,3″-di-p-methylphenylethylcarboxy)glucosyl-4H-chromen-4-one] | 1 µg/mL (≈ 1.32 µM) | 2 µg/mL (≈ 2.64 µM) | 2 µg/mL (≈ 2.64 µM) | 1 µg/mL (≈ 1.32 µM) | 1 µg/mL (≈ 1.32 µM) | 2 µg/mL (≈ 2.64 µM) | 4 µg/mL (≈ 5.29 µM) | 3.50 µg/mL | strong antibacterial activities |  |
| O=C(CCc1ccc(F)cc1)O[C@H]1[C@H](Oc2c(-c3ccc(O)c(O)c3)oc3cc(O)cc(O)c3c2=O)O[C@H](CO)[C@@H](O)[C@@H]1OC(=O)CCc1ccc(F)cc1 [Compound 15d, 2-(3′,4′-Dihydroxy)-5,7-dihydroxy-3-β-D-(2″,3″-di-p-flurophenylethylcarboxy)glucosyl-4H-chromen-4-one] | 0.25 µg/mL (≈ 0.327 µM) | 2 µg/mL (≈ 2.62 µM) | 2 µg/mL (≈ 2.62 µM) | 0.25 µg/mL (≈ 0.327 µM) | 1 µg/mL (≈ 1.31 µM) | 1 µg/mL (≈ 1.31 µM) | 1 µg/mL (≈ 1.31 µM) | 0.22 µg/mL | strong antibacterial activities | Gyrase inhibitory effect compared with norfloxacin (in words) ([10]; summary of Table 2): inhibitory effect equal to or greater than that of an existing gyrase inhibitor such as norfloxacin; Changes in the body weights [12]: the body weights were slightly reduced from the day after administration, but the body weights of all the four mice were recovered from about day 5 after administration; Mortality ([13]; 10 mg/kg for 4 consecutive days): All the mice were not dead until day 7; Mortality ([13]; 100 mg/kg for 4 consecutive days): all the mice in the group were dead on days 5 to 7 after administration |
| 2-(3′,4′-Dihydroxy)-5,7-dihydroxy-3-β-D-(2″,3″-di-p-flurobenzyloxy)glucosyl-4H-chromen-4-one [Compound 15h] | 2 µg/mL | 8 µg/mL | 8 µg/mL | 2 µg/mL | 2 µg/mL | 8 µg/mL | 8 µg/mL |  | strong antibacterial activities |  |
